Values of other authors, collected in patent US8748394B2, “Apo A-I mimetic peptides and methods of treatment” (Abbott Cardiovascular Systems Inc., priority 2007, dated 2014).
“Also recorded” adds a separate entry of the source. Square brackets hold non-standard residues; d marks the D form. Ends that are not written are not given here.

Test system: reverse cholesterol transport
Settings: for function in reverse cholesterol transport in vitro: when a phospholipid complex is presented; for effectiveness in reverse cholesterol transport: without a lipid complex (non-complex form)

Substance	function in reverse cholesterol transport in vitro	effectiveness in reverse cholesterol transport	need of phospholipid complex for effective reverse cholesterol transport
DWFKAFYDKVAEKFKEAF [L-4F] (not fully specified) [18 amino acid Apo A-I mimetic peptide 4F, L enantiomer]	function more effectively	demonstrated an ability to function in a non-complex form	
DWFKAFYDKVAEKFKEAF [D-4F] ([dD][dW][dF][dK][dA][dF][dY][dD][dK][dV][dA][dE][dK][dF][dK][dE][dA][dF]) [18 amino acid Apo A-I mimetic peptide 4F, D enantiomer]	function more effectively	effective in reverse cholesterol transport without a lipid complex; also recorded: demonstrated an ability to function in a non-complex form	
Ac-PALEDLRQGLLPVLESFKVFLSALEEYTKKLNTQ-NH2 [33-mer peptide mimetic, 33-mer peptide, helices 9/10]			requires phospholipid complex formation
